In patent US11053205B2, “Phenazine derivatives as antimicrobial agents” (University of Florida Research Foundation, Incorporated, priority 2017, dated 2021):
In brackets after ≈: the same amount, converted by molar mass.

Columns and labels:
VRE 700221 = experiment: MIC, broth microdilution (CLSI); details: Enterococcus, VRE, read-out: VRE 700221 MIC
S. epi 12228 = experiment: MIC, broth microdilution (CLSI); details: Staphylococcus epidermidis, 12228, read-out: S. epi 12228 MIC
MRSA-2 biofilms = experiment: Calgary Biofilm Device (CBD) assay, MBC/MBEC
MRSA BAA-44 biofilms = experiment: Calgary Biofilm Device (CBD) assay, MBC/MBEC; details: biofilm eradication
MRSE 35984 biofilms = experiment: Calgary Biofilm Device (CBD) assay, MBC/MBEC; details: Staphylococcus epidermidis, MRSE, read-out: MRSE 35984 MBC
human red blood cells = experiment: Hemolysis assay with red blood cells; details: 1 hour at 37° C.
MRSA BAA-1707 biofilms = experiment: Calgary Biofilm Device (CBD) assay, MBC/MBEC
VRE 700221 biofilms = experiment: Calgary Biofilm Device (CBD) assay, MBC/MBEC

SMILES: CN[C@H](CC(C)C)C(=O)N[C@H]1C(=O)N[C@@H](CC(N)=O)C(=O)N[C@H]2C(=O)N[C@H]3C(=O)N[C@H](C(=O)N[C@H](C(=O)O)c4cc(O)cc(O)c4-c4cc3ccc4O)[C@H](O)c3ccc(c(Cl)c3)Oc3cc2cc(c3O[C@@H]2O[C@H](CO)[C@@H](O)[C@H](O)[C@H]2O[C@H]2C[C@](C)(N)[C@H](O)[C@H](C)O2)Oc2ccc(cc2Cl)[C@H]1O [vancomycin, reference compound]
- MIC (VRE 700221): > 100 µM
- MIC (S. epi 12228): 1.17 µM (≈ 1.7 µg/mL)
- MRSA-2 MBEC (MRSA-2 biofilms; CBD, biofilm eradication): > 2000 µM
- MBC (MRSA-2 biofilms; Staphylococcus aureus, MRSA, read-out: MRSA-2 MBC): 3 µM (≈ 4.35 µg/mL)
- MRSA BAA-44 MBEC (MRSA BAA-44 biofilms): > 2000 µM
- MBC (MRSE 35984 biofilms): 3 µM (≈ 4.35 µg/mL)
- Hemolysis at 200 μM (human red blood cells): ≤1%
- MBC (MRSA BAA-1707 biofilms; Staphylococcus aureus, read-out: MRSA BAA-1707 MBC): 3.9 µM (≈ 5.65 µg/mL)
- biofilm eradication activities against MRSA biofilms (MRSA BAA-1707 biofilms; at 2,000 μM (highest concentration tested)): no biofilm eradication activities
- VRE 700221 MBEC (VRE 700221 biofilms; CBD, biofilm eradication): 150 µM
- MBC (VRE 700221 biofilms; Enterococcus, VRE, read-out: VRE 700221 MBC): > 200 µM
